What is called IC50 is the concentration that inhibits the measured activity by half.

Type in all cases: biochemical
In one experiment the test system is MYC. As to the kind of experiment: In vitro transcription-translation (IVTT) assay, MYC reporter. As to conditions: IVTT assay, HeLa S3 lysate, MYC reporter, normalized sfGFP/mCherry ratio; half-log dilutions 30 μM-0.1 μM, 2 hrs at 30° C. The gist of the method: (§1)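 Reporter: mCherry, P2A, then 3×FLAG-target peptide-sfGFP fusion, IRES-initiated; HeLa S3 lysate IVTT; cpd dilutions 30 μM−0.1 μM half-log in 100% DMSO (dilution-plate conc); DNA added last; 2 h, 30° C; PBS quench.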

A further experiment deals with CCND1. As to the kind of experiment: In vitro transcription-translation (IVTT) assay, CCND1 reporter. Conditions: IVTT, HeLa S3 lysate, 2 hrs at 30° C. In outline:
as §1

A further experiment relates to MCL-1. The experiment is described as follows: In vitro transcription-translation (IVTT) assay, MCL-1 reporter. Conditions: IVTT, HeLa S3 lysate, 2 hrs at 30° C.; read-out: MCL1 IC50. The gist of the method: as §1
The next experiment has as its system CCNTB1. The experiment is described as follows: In vitro transcription-translation (IVTT) assay, CCNTB1 reporter. As to conditions: HeLa S3 lysate, 2 hrs at 30° C. In outline: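 IC50 fitted from the sfGFP/mCherry fluorescence ratio, normalized to no-drug control after no-DNA background subtraction. Reactions ran 2 h at 30° C in HeLa S3 cell lysate with reporter plasmid DNA and half-log compound titrations (30 μM−0.1 μM, in DMSO).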

SMILES strings stand for the structures.

As for `O=C(NCc1cccc(F)c1)O[C@@H]1[C@@H](O)CN[C@@H]1Cc1ccc(-c2ncco2)cc1` [V190514, (2R,3S,4S)-4-hydroxy-2-{[4-(1,3-oxazol-2-yl)phenyl]methyl}pyrrolidin-3-yl N-[(3-fluorophenyl)methyl]carbamate], the IC50 in the experiment with MYC, in the experiment on CCND1, in the experiment with MCL-1 and with CCNTB1 was below 10 µM each time.

Turning to `O=C(NCc1cccc(F)c1)O[C@@H]1[C@@H](O)CN[C@@H]1Cc1ccc(-n2ccnc2)cc1` [V190515, (2R,3S,4S)-4-hydroxy-2-{[4-(imidazol-1-yl)phenyl]methyl}pyrrolidin-3-yl N-[(3-fluorophenyl)methyl]carbamate], the IC50 in the experiment on MYC, in the experiment with CCND1, with MCL-1 and with CCNTB1 was below 10 µM throughout.

Turning to `O=C(NCc1cccc(F)c1)O[C@@H]1[C@@H](O)CN[C@@H]1Cc1ccc(C2CC2)cc1` [V190518, (2R,3S,4S)-2-[(4-cyclopropylphenyl)methyl]-4-hydroxypyrrolidin-3-yl N-[(3-fluorophenyl)methyl]carbamate], the IC50 is 10 to 20 µM in the experiment on MYC, 20 to 30 µM with CCND1, 10 to 20 µM with MCL-1 and below 10 µM in the experiment on CCNTB1.

On to `COc1ccc(C[C@H]2NC[C@H](O)[C@H]2OC(=O)NCc2ccccc2F)cc1` [V190520, (2R,3S,4S)-4-hydroxy-2-[(4-methoxyphenyl)methyl]pyrrolidin-3-yl N-[(2-fluorophenyl)methyl]carbamate], for which the IC50 in the experiment on MYC is below 10 µM; with CCND1, 10 to 20 µM; in the experiment on MCL-1 it was below 10 µM; with CCNTB1, below 10 µM.

Turning to `COc1ccc(C[C@H]2NC[C@H](O)[C@H]2OC(=O)NCc2c(F)cccc2F)cc1` [V190521, (2R,3S,4S)-4-hydroxy-2-[(4-methoxyphenyl)methyl]pyrrolidin-3-yl N-[(2,6-difluorophenyl)methyl]carbamate], the IC50 was 20 to 30 µM in the experiment on MYC, above 30 µM in the experiment with CCND1, 20 to 30 µM in the experiment with MCL-1 and 10 to 20 µM with CCNTB1.

On to `COc1ccc(C[C@H]2NC[C@H](O)[C@H]2OC(=O)NCc2ccnc(F)c2)cc1` [V190522, (2R,3S,4S)-4-hydroxy-2-[(4-methoxyphenyl)methyl]pyrrolidin-3-yl N-[(2-fluoropyridin-4-yl)methyl]carbamate], for which the half-inhibitory concentration (IC50) in the experiment with MYC, in the experiment with CCND1, with MCL-1 and in the experiment on CCNTB1 was below 10 µM each time.

On to `COc1ccc(C[C@H]2NC[C@H](O)[C@H]2OC(=O)NC2CC3(CCNC3)C2)cc1` (stereo partly drawn) [V190538, (2R,3S,4S)-4-hydroxy-2-[(4-methoxyphenyl)methyl]pyrrolidin-3-yl N-{6-azaspiro[3.4]octan-2-yl}carbamate], for which the IC50 in the experiment on MYC, in the experiment on CCND1, in the experiment on MCL-1 and in the experiment on CCNTB1 was above 30 µM throughout.

`O=C(NCc1cccc(F)c1)O[C@@H]1[C@@H](O)CN[C@@H]1Cc1ccc(-c2cncs2)cc1` [V190546, (2R,3S,4S)-4-hydroxy-2-{[4-(1,3-thiazol-5-yl)phenyl]methyl}pyrrolidin-3-yl N-[(3-fluorophenyl)methyl]carbamate]: the half-inhibitory concentration (IC50) in the experiment on MYC, in the experiment with CCND1, with MCL-1 and with CCNTB1 was below 10 µM in each case.

As to `CC(F)(F)c1ccc(C[C@H]2NC[C@H](O)[C@H]2OC(=O)NCc2cccc(F)c2)cc1` [V190547, (2R,3S,4S)-2-{[4-(1,1-difluoroethyl)phenyl]methyl}-4-hydroxypyrrolidin-3-yl N-[(3-fluorophenyl)methyl]carbamate], the IC50 was below 10 µM with MYC, 20 to 30 µM in the experiment with CCND1, below 10 µM with MCL-1 and below 10 µM in the experiment with CCNTB1.

Consider `COc1ccc(C[C@H]2NC[C@H](O)[C@H]2OC(=O)NCc2ccc(C3CNC3)cc2)cc1` [V190559, (2R,3S,4S)-4-hydroxy-2-[(4-methoxyphenyl)methyl]pyrrolidin-3-yl N-{[4-(azetidin-3-yl)phenyl]methyl}carbamate], for which the IC50 with MYC, with CCND1, with MCL-1 and in the experiment on CCNTB1 was below 10 µM each time.

For the compound `CC(F)(F)c1ccc(C[C@H]2NC[C@H](O)[C@H]2OC(=O)NCC[C@@H]2CCCN2)cc1` [V191885, (2R,3S,4S)-2-{[4-(1,1-difluoroethyl)phenyl]methyl}-4-hydroxypyrrolidin-3-yl N-{2-[(2S)-pyrrolidin-2-yl]ethyl}carbamate], the IC50 in the experiment with MYC was below 10 µM; in the experiment on CCND1, 10 to 20 µM; in the experiment with MCL-1, below 10 µM; with CCNTB1, below 10 µM.

Consider `O=C(NCC[C@@H]1CCCN1)O[C@@H]1[C@@H](O)CN[C@@H]1Cc1ccc(F)cc1` [V191886, (2R,3S,4S)-2-[(4-fluorophenyl)methyl]-4-hydroxypyrrolidin-3-yl N-{2-[(2S)-pyrrolidin-2-yl]ethyl}carbamate], for which the IC50 with MYC, in the experiment on CCND1, in the experiment with MCL-1 and in the experiment with CCNTB1 was below 10 µM each time.

With `COc1ccc(C[C@H]2NC[C@H](O)[C@H]2OC(=O)NCC[C@@H]2CCCCN2)cc1` [V191902, (2R,3S,4S)-4-hydroxy-2-[(4-methoxyphenyl)methyl]pyrrolidin-3-yl N-{2-[(2S)-piperidin-2-yl]ethyl}carbamate], the IC50 is 10 to 20 µM in the experiment with MYC, above 30 µM with CCND1, above 30 µM with MCL-1 and 10 to 20 µM in the experiment with CCNTB1.

As for `COc1ccc(C[C@H]2NC[C@H](O)[C@H]2OC(=O)NCc2cccc(Cl)c2)cc1` [V191904, (2R,3S,4S)-4-hydroxy-2-[(4-methoxyphenyl)methyl]pyrrolidin-3-yl N-[(3-chlorophenyl)methyl]carbamate], the IC50 with MYC, with CCND1, with MCL-1 and in the experiment on CCNTB1 was below 10 µM throughout.

Regarding `COc1ccc(C[C@H]2NC[C@H](O)[C@H]2OC(=O)NCc2ccccc2C#N)cc1` [V191911, (2R,3S,4S)-4-hydroxy-2-[(4-methoxyphenyl)methyl]pyrrolidin-3-yl N-[(2-cyanophenyl)methyl]carbamate], the IC50 with MYC is below 10 µM; with CCND1, 10 to 20 µM; in the experiment on MCL-1 it was below 10 µM; in the experiment on CCNTB1 it was below 10 µM.

With `COc1ccc(C[C@H]2NC[C@H](O)[C@H]2OC(=O)NCc2ccccc2Cl)cc1` [V191915, (2R,3S,4S)-4-hydroxy-2-[(4-methoxyphenyl)methyl]pyrrolidin-3-yl N-[(2-chlorophenyl)methyl]carbamate], the 50% inhibitory concentration (IC50) in the experiment on MYC, in the experiment with CCND1, with MCL-1 and with CCNTB1 was below 10 µM in each case.

For `COc1ccc(C[C@H]2NC[C@H](O)[C@H]2OC(=O)NCC[C@@H]2CCN2)cc1` [V191920, (2R,3S,4S)-4-hydroxy-2-[(4-methoxyphenyl)methyl]pyrrolidin-3-yl N-{2-[(2S)-azetidin-2-yl]ethyl}carbamate], the IC50 with MYC, with CCND1, in the experiment on MCL-1 and in the experiment on CCNTB1 was below 10 µM in each case.

For `COc1ccc(C[C@H]2NC[C@H](O)[C@H]2OC(=O)NCC[C@@H]2CCC3(CC3)N2)cc1` [V191945, (2R,3S,4S)-4-hydroxy-2-[(4-methoxyphenyl)methyl]pyrrolidin-3-yl N-{2-[(5S)-4-azaspiro[2.4]heptan-5-yl]ethyl}carbamate], the half-inhibitory concentration (IC50) in the experiment with MYC is below 10 µM; in the experiment with CCND1, 10 to 20 µM; in the experiment with MCL-1, below 10 µM; in the experiment on CCNTB1, below 10 µM.

In the case of `COc1ccc(C[C@H]2NC[C@H](O)[C@H]2OC(=O)NCc2cccc(C(F)F)c2)cc1` [V191954, (2R,3S,4S)-4-hydroxy-2-[(4-methoxyphenyl)methyl]pyrrolidin-3-yl N-{[3-(difluoromethyl)phenyl]methyl}carbamate], the IC50 with MYC, in the experiment on CCND1, in the experiment with MCL-1 and with CCNTB1 was below 10 µM in each case.

`COc1ccc(C[C@H]2NC[C@H](O)[C@H]2OC(=O)NCc2ccc(NS(C)(=O)=O)cc2)cc1` [V191955, (2R,3S,4S)-4-hydroxy-2-[(4-methoxyphenyl)methyl]pyrrolidin-3-yl N-[(4-methanesulfonamidophenyl)methyl]carbamate]: the IC50 in the experiment with MYC, in the experiment with CCND1, with MCL-1 and in the experiment with CCNTB1 was below 10 µM throughout.

For the compound `O=C(NCC[C@@H]1CCCN1)O[C@@H]1[C@@H](O)CN[C@@H]1Cc1ccc(-c2ccc(F)c(F)c2)cc1` [V191962, (2R,3S,4S)-2-({3′,4′-difluoro-[1,1′-biphenyl]-4-yl}methyl)-4-hydroxypyrrolidin-3-yl N-{2-[(2S)-pyrrolidin-2-yl]ethyl}carbamate], the half-inhibitory concentration (IC50) in the experiment with MYC, in the experiment with CCND1, in the experiment on MCL-1 and in the experiment on CCNTB1 was above 30 µM in each case.

In the case of `O=C(NCC[C@@H]1CCCN1)O[C@@H]1[C@@H](O)CN[C@@H]1Cc1ccc(-c2ccc(C(F)(F)F)cc2)cc1` [V191963, (2R,3S,4S)-4-hydroxy-2-{[4′-(trifluoromethyl)-[1,1′-biphenyl]-4-yl]methyl}pyrrolidin-3-yl N-{2-[(2S)-pyrrolidin-2-yl]ethyl}carbamate], the IC50 with MYC is above 30 µM; in the experiment on CCND1, above 30 µM; with MCL-1, 20 to 30 µM; with CCNTB1, 20 to 30 µM.

These data come from patent US20250129021A1, “SMALL MOLECULE PROTEIN SYNTHESIS MODULATORS” (Interdict Bio, Inc., priority 2023, published 2025).
